According to ChEMBL document CHEMBL5154808, “Novel β-Hairpin Antimicrobial Peptides Containing the β-Turn Sequence of -RRRF- Having High Cell Selectivity and Low Incidence of Drug Resistance” (J Med Chem, 2022):
Activity calls are given as the source filed them. No cut-off for these calls is given here.

Legend:
Escherichia coli [1] = assay: Antimicrobial activity against Escherichia coli ATCC 25922 assessed as reduction of bacterial growth at 2 times MIC incubated for 18 hrs in presence of trypsin by CLSI protocol based broth microdilution method; type: functional, organism-based
Escherichia coli [2] = assay: Antimicrobial activity against Escherichia coli ATCC 25922 assessed as reduction in bacterial growth incubated for 18 hrs in presence of 4 uM FeCl3 by CLSI protocol based broth microdilution method (reference value: 8 uM); type: functional
Staphylococcus aureus [3] = assay: Antimicrobial activity against Staphylococcus aureus ATCC 25923 assessed as reduction in bacterial growth incubated for 18 hrs in presence of 4.5 mM KCl by CLSI protocol based broth microdilution method (reference value: 8 uM); type: functional
[4] = Acute toxicity in Kunming mouse assessed as hepatocyte hyperemia in liver at 62 mg/kg, ip by H and E staining based analysis; type: organism-based
[5] = Acute toxicity in Kunming mouse assessed as swelling in liver at 62 mg/kg, ip by H and E staining based analysis; type: organism-based; details: in vivo
Escherichia coli [6] = assay: Synergistic antibacterial activity against kanamycin-resisitant Escherichia coli ATCC 25922 assessed as fractional inhibitory concentration index incubated for 18 hrs in presence of kanamycin by checker board assay; type: functional
Staphylococcus aureus [7] = assay: Antimicrobial activity against Staphylococcus aureus ATCC 25923 assessed as reduction of bacterial growth at 2 times MIC incubated for 18 hrs in presence of trypsin by CLSI protocol based broth microdilution method; type: functional, organism-based
Escherichia coli [8] = assay: Antimicrobial activity against Escherichia coli ATCC 25922 assessed as reduction in bacterial growth incubated for 18 hrs in presence of 10% serum by CLSI protocol based broth microdilution method (reference value: 4 uM); type: functional
Staphylococcus aureus [9] = assay: Antimicrobial activity against Staphylococcus aureus ATCC 25923 assessed as reduction in bacterial growth incubated for 18 hrs in presence of 4.5 mM KCl by CLSI protocol based broth microdilution method (reference value: 4 uM); type: functional
Staphylococcus aureus [10] = assay: Synergistic antibacterial activity against Staphylococcus aureus ATCC 25923 assessed as fractional inhibitory concentration index incubated for 18 hrs in presence of polymyxin B by checker board assay; type: functional
[11] = Acute toxicity in Kunming mouse assessed as congestion in lungs at 77 mg/kg, ip by H and E staining based analysis; type: organism-based; details: in vivo
Staphylococcus aureus [12] = assay: Antimicrobial activity against Staphylococcus aureus ATCC 25923 assessed as reduction in bacterial growth incubated for 18 hrs in presence of 4 uM FeCl3 by CLSI protocol based broth microdilution method (reference value: 4 uM); type: functional

Substance: H-KWKWKRRRFKWKWK-NH2
- Activity (Escherichia coli [1]): Active
- MIC (Escherichia coli [2]): 8 µM
- MIC (Staphylococcus aureus [3]): 8 µM
- Activity [4]: Toxic
- Activity [5]: Toxic
- fractional inhibitory concentration index (FICI) (Escherichia coli [6]): 0.3125
- Activity (Staphylococcus aureus [7]): Active

Substance: H-RIRIRRRRFRIRIR-NH2
- MIC (Escherichia coli [8]): 4 µM
- MIC (Staphylococcus aureus [9]): 4 µM
- fractional inhibitory concentration index (FICI) (Staphylococcus aureus [10]): 0.375
- Activity [11]: Toxic
- MIC (Staphylococcus aureus [12]): 4 µM
